Where two headings read alike, the source gives them in different places.
Legend:
[1] = molecular target: hMOR (Homo sapiens, UniProt P35372); assay: Radioligand binding assay (Eurofins Cerep), [3H]DAMGO displacement; details: for Ki: 3 independent experiments
[2] = molecular target: T1, α2A adrenergic receptor (Homo sapiens, UniProt P08913); assay: Radioligand binding assay (Eurofins Cerep), [3H]RX 821002 displacement
T1 construct: Eurofins Cerep (contract screening)
T1 sequence (P08913 1-465): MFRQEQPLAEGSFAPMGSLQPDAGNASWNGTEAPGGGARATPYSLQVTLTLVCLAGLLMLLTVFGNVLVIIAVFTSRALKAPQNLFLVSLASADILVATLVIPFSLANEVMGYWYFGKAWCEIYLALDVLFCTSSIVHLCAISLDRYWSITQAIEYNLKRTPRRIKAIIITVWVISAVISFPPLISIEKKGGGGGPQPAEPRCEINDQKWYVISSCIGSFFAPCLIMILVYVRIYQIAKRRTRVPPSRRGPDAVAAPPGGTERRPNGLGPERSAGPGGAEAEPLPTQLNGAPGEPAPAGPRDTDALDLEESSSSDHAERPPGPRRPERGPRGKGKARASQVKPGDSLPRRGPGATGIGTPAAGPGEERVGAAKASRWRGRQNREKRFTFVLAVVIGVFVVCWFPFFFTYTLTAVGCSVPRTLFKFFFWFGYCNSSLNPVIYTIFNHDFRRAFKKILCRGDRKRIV

[3] = molecular target: T2, α2C adrenergic receptor (Homo sapiens, UniProt P18825); assay: as above
T2 construct: Eurofins Cerep (contract screening)
T2 sequence (P18825 1-462): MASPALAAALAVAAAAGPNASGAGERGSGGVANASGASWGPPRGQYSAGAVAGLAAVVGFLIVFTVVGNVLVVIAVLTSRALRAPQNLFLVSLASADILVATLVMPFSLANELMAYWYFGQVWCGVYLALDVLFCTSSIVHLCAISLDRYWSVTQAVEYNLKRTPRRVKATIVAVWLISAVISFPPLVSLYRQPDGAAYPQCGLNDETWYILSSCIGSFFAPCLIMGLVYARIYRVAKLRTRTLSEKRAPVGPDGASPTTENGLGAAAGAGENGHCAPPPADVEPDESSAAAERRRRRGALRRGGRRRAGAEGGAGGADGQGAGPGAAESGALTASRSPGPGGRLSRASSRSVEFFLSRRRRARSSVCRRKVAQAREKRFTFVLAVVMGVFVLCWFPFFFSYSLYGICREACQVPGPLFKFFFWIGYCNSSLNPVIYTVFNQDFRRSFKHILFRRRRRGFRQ

[4] = molecular target: hKOR (Homo sapiens, UniProt P41145); assay: Radioligand binding assay (Eurofins Cerep), [3H]U69,593 displacement
[5] = molecular target: hDOR (Homo sapiens, UniProt P41143); assay: Radioligand binding assay (Eurofins Cerep), [3H]DADLE displacement
[6] = Table B1, mean ± SEM, read-out: MOR Ki ± SEM
[7] = Alpha2A Ki ± SEM (nM), Table B1, mean ± SEM, 3 independent experiments
[8] = Table B1, mean ± SEM, 3 independent experiments, read-out: Alpha2C Ki ± SEM
[9] = Table 3-1, read-out: Ki (nM ± SEM) MOR
[10] = Table 3-2, read-out: Ki (nM ± SEM) MOR
[11] = Table 3-3, read-out: Ki (nM ± SEM) MOR
[12] = Table 3-5, read-out: Ki (nM ± SEM) MOR
[13] = Table 3-6, read-out: Ki (nM ± SEM) MOR
[14] = Table 3-1, 3 independent experiments, read-out: Ki (nM ± SEM) KOR
[15] = Table 3-2, 3 independent experiments, read-out: Ki (nM ± SEM) KOR
[16] = Table 3-3, 3 independent experiments, read-out: Ki (nM ± SEM) KOR
[17] = Table 3-5, 3 independent experiments, read-out: Ki (nM ± SEM) KOR
[18] = Table 3-6, 3 independent experiments, read-out: Ki (nM ± SEM) KOR
[19] = Table 3-1, 3 independent experiments, read-out: Ki (nM ± SEM) DOR
[20] = Table 3-2, 3 independent experiments, read-out: Ki (nM ± SEM) DOR
[21] = Table 3-3, 3 independent experiments, read-out: Ki (nM ± SEM) DOR
[22] = Table 3-5, 3 independent experiments, read-out: Ki (nM ± SEM) DOR
[23] = Table 3-6, 3 independent experiments, read-out: Ki (nM ± SEM) DOR
[24] = Ki (nM ± SEM) a2A-AR, Table 3-1, 3 independent experiments
[25] = Ki (nM ± SEM) a2A-AR, Table 3-2, 3 independent experiments
[26] = Ki (nM ± SEM) a2A-AR, Table 3-3, 3 independent experiments
[27] = Ki (nM ± SEM) a2A-AR, Table 3-6, 3 independent experiments
[28] = Ki (nM ± SEM) a2A-ar, Table 3-5, 3 independent experiments
[29] = Ki (nM ± SEM) a2C-AR, Table 3-1, 3 independent experiments
[30] = Ki (nM ± SEM) a2C-AR, Table 3-2, 3 independent experiments
[31] = Ki (nM ± SEM) a2C-AR, Table 3-5, 3 independent experiments
[32] = Ki (nM ± SEM) a2C-AR, Table 3-6, 3 independent experiments

Sequence of hKOR (P41145 whole entry): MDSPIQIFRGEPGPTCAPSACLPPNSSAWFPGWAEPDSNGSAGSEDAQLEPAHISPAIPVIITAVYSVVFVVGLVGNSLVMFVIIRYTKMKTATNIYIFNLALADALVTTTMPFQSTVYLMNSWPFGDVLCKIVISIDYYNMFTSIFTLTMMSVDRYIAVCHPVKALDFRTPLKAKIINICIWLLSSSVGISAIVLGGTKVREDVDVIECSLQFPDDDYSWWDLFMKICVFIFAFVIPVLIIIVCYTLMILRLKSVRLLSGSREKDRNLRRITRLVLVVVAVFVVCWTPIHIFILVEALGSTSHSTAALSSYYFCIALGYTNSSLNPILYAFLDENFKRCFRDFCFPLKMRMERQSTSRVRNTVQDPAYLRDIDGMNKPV
Sequence of hMOR (P35372 whole entry): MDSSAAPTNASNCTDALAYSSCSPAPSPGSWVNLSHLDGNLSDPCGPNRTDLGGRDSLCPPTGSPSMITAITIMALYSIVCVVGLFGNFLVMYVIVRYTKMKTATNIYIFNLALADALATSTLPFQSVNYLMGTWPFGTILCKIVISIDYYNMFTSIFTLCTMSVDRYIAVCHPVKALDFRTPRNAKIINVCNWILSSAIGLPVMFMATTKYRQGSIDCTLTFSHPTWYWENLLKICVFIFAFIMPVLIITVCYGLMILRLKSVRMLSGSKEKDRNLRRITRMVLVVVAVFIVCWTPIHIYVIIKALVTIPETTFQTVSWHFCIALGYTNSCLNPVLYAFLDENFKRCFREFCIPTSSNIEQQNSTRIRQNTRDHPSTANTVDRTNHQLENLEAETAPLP
Sequence of hDOR (P41143 whole entry): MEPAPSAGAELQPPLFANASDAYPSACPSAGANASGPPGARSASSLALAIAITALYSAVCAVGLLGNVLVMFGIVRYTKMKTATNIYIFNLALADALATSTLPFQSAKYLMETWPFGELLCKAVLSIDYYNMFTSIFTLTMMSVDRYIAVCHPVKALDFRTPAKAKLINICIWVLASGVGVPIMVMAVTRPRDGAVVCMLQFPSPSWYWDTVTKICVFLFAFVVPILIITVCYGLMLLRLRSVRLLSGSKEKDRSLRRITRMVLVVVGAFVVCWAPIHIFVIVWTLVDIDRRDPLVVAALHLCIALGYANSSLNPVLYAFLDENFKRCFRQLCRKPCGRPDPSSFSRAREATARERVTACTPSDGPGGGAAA

COC(=O)C=C1CCN2CCC(O)(c3ccccc3OC)CC2C1 (single isomer, unassigned) [SG-01-005A]
Ki [1, 6]: > 10000 nM
Ki [2, 7]: 1000 ± 254 nM
Ki [3, 8]: 489 ± 83.4 nM

COC(=O)C=C1CCN2CCC(O)(c3ccccc3OC)CC2C1 (single isomer, unassigned) [SG-01-005B]
Ki [1, 6]: > 10000 nM
Ki [2, 7]: 110 ± 8 nM
Ki ([3]; Alpha2C Ki ± SEM (nM), Table B1, mean ± SEM, 3 independent experiments): 46.7 ± 4.04 nM

CC[C@@H]1CN2CC[C@@]3(O)C(=Nc4cccc(OC)c43)[C@@H]2C[C@@H]1/C(=C\OC)C(=O)OC [7-Hydroxy Mitragynine, reference compound]
Ki ([4]; Table A1, data summary #1, read-out: KOR Ki ± SEM): 450 nM
Ki ([4]; Table A4, data summary #2, read-out: KOR Ki ± SEM): 450 nM
Ki ([5]; Table A1, data summary #1, read-out: DOR Ki ± SEM): 243 nM
Ki ([5]; Table A4, data summary #2, read-out: DOR Ki ± SEM): 243 nM
Ki ([2]; Table A1, data summary #1, read-out: Alpha2A Ki ± SEM): > 10000 nM
Ki ([2]; Table A4, data summary #2, read-out: Alpha2A Ki ± SEM): > 10000 nM
Ki ([3]; Table A1, data summary #1, read-out: Alpha2C Ki ± SEM): > 10000 nM

COC(=O)CC1CCN(CCc2c[nH]c3cccc(OC)c23)CC1 [Compound 3-22]
Ki [1, 9]: > 10000 nM
Ki [1, 10]: > 10000 nM
Ki [1, 11]: > 10000 nM
Ki [1, 12]: > 10000 nM
Ki [1, 13]: > 10000 nM
Ki [4, 14]: > 10000 nM
Ki [4, 15]: > 10000 nM
Ki [4, 16]: > 10000 nM
Ki [4, 17]: > 10000 nM
Ki [4, 18]: > 10000 nM
Ki [5, 19]: > 10000 nM
Ki [5, 20]: > 10000 nM
Ki [5, 21]: > 10000 nM
Ki [5, 22]: > 10000 nM
Ki [5, 23]: > 10000 nM
Ki [2, 24]: 229 ± 24.9 nM
Ki [2, 25]: 229 ± 24.9 nM
Ki [2, 26]: 229 ± 24.9 nM
Ki [2, 27]: 229 ± 24.9 nM
Ki [2, 28]: 229 ± 24.9 nM
Ki [3, 29]: 69.3 ± 4.2 nM
Ki [3, 30]: 69.3 ± 4.16 nM
Ki ([3]; Ki (nM ± SEM) a2C-AR, Table 3-3, 3 independent experiments): 69.3 ± 4.16 nM
Ki [3, 31]: 69.3 ± 4.16 nM
Ki [3, 32]: 69.3 ± 4.16 nM

CO/C=C(/C(=O)OC)C1CCN(CCc2c[nH]c3ccccc23)CC1 [Compound 3-23]
SR: Selectivity Ratio (KiMOR/Kiα2A) ([1]; Table 3-1): 0.61
Ki [1, 9]: 451 ± 108 nM
SR: Selectivity Ratio (KiMOR/Kiα2A) ([1]; Table 3-2): 0.61
Ki [1, 10]: 451 ± 108 nM
SR: Selectivity Ratio (KiMOR/Kiα2A) ([1]; Table 3-4): 0.61
Ki ([1]; Table 3-4, read-out: Ki (nM ± SEM) MOR): 451 ± 108 nM
SR: Selectivity Ratio (KiMOR/Kiα2A) ([1]; Table 3-5): 0.61
Ki [1, 12]: 451 ± 108 nM
SR: Selectivity Ratio (KiMOR/Kiα2A) ([1]; Table 3-6): 0.61
Ki [1, 13]: 451 ± 108 nM
Ki [4, 14]: 3670 ± 1260 nM
Ki [4, 15]: 3670 ± 1260 nM
Ki ([4]; Table 3-4, 3 independent experiments, read-out: Ki (nM ± SEM) KOR): 3670 ± 1260 nM
Ki [4, 17]: 3670 ± 1260 nM
Ki [4, 18]: 3670 ± 1260 nM
Ki [5, 19]: > 10000 nM
Ki [5, 20]: > 10000 nM
Ki ([5]; Table 3-4, 3 independent experiments, read-out: Ki (nM ± SEM) DOR): > 10000 nM
Ki [5, 22]: > 10000 nM
Ki [5, 23]: > 10000 nM
Ki [2, 24]: 741 ± 19.3 nM
Ki [2, 25]: 741 ± 19.3 nM
Ki ([2]; Ki (nM ± SEM) a2A-AR, Table 3-4, 3 independent experiments): 741 ± 19.3 nM
Ki [2, 27]: 741 ± 19.3 nM
Ki [2, 28]: 741 ± 19.3 nM
Ki [3, 29]: 830 ± 268 nM
Ki [3, 30]: 830 ± 268 nM
Ki ([3]; Ki (nM ± SEM) a2C-AR, Table 3-4, 3 independent experiments): 830 ± 268 nM
Ki [3, 31]: 830 ± 268 nM
Ki [3, 32]: 135 ± 12.5 nM

COC(=O)CC1CCN(CCc2c[nH]c3c(OC)cccc23)CC1 [Compound 3-42]
Ki [1, 10]: > 10000 nM
Ki [1, 11]: > 10000 nM
Ki [4, 15]: > 10000 nM
Ki [4, 16]: > 10000 nM
Ki [5, 20]: > 10000 nM
Ki [5, 21]: > 10000 nM
Ki [2, 25]: 1300 ± 129 nM
Ki [2, 26]: 1300 ± 129 nM
Ki [3, 30]: 830 ± 268 nM

C#CCCN1CCC(O)(c2ccccc2OC)CC1 [SG-01-003, 1-(but-3-ynyl)-4-(2-methoxyphenyl)piperidin-4-ol]
Ki [1, 6]: > 10000 nM
selectivity between MOR and α 2A ([1]; binding screen of intermediates): not selective towards both receptors
Ki [2, 7]: 5750 ± 1170 nM
Ki [3, 8]: > 10000 nM

COC(=O)C=C1CCN2CCC(O)(c3ccccc3OC)CC2C1 (stereo not drawn) [SG-01-005, Methyl 2-(8-hydroxy-8-(2-methoxyphenyl)dihydro-1H-quinolizin-2(6H,7H,8H,9H, 9aH)-ylidene)acetate]
Ki [1, 6]: > 10000 nM
Ki [2, 7]: 264 ± 16 nM
Ki [3, 8]: 129 ± 37.9 nM

— US20260234147A1 (priority 2023, published 2026)
